Starred links: 1 amine or outer side, 2 acyl side, 3 side chain; linkers in the order of their positions; H or OH if unused. Non-standard residues stand in square brackets, D forms with d. Residues, ends and D or L forms follow the SMILES beside them. X2 = O=C([C@H](Cc1noc(=O)[nH]1)N[*:1])[*:2]; Nle = CCCC[C@H](N)C(=O)O
Assays:
[1] = Stability test 1: survival rate of peptide in phosphate buffer (pH 7.0) after storage, HPLC; format: physicochemical; details: 100 μM peptide, phosphate buffer pH 7.0, 40° C.
Protocol: The 1.0 mM peptide solutions were then diluted with phosphate buffer to 100 μM. […] The prepared peptide solutions were incubated for one month or 2 months in a 40° C. thermostatic bath to obtain stored samples.
Using the total weight of the aqueous peptide solution and storage vessel as the specimen weight, measurements were recorded as the specimen weights before storage and the specimen weights after storage under different storage conditions. The empty weight of the storage vessel was also measured, and the moisture permeability was determined by the following formula.
After stirring the standard sample and the stored samples with a vortex mixer, each peptide solution was transferred to an HPLC vial (Deactivated Qsert vial by Waters Co.). Reverse-phase HPLC (HPLC system: Prominence by Shimadzu Corp.) was conducted under the conditions shown in Table 3 below for analysis of the peptide solutions, and chromatograms were obtained.
The peak area value for the peptide in the chromatogram was calculated, and the survival rate (survival rate before correction for water) was calculated using formula (2). The survival rate after correction for water was also calculated from the survival rate before correction for water using formula (3) to take into account the permeability of the container.
Peptide solutions prepared by the same method as [Measuring sample preparation 1] for the peptides synthesized in Example 2 (peptides 13 to 16) were incubated for 2 weeks and 8 weeks in a thermostatic bath at 40° C. to obtain stored samples.
Peptide solutions prepared by the same method as [Measuring sample preparation 1] for the peptides synthesized in Example 2 (peptides 17 to 21) were incubated for 4 weeks in a thermostatic bath at 40° C. to obtain stored samples.
A peptide solution prepared by the same method as [Measuring sample preparation 1] for peptide 22 synthesized in Example 2 was incubated for 1 week and 4 weeks in a thermostatic bath at 40° C. to obtain stored samples.

[2] = 100 μM peptide, Tris buffer pH 7.0, 60° C.
Protocol: The solution was filtered with a Chromatdisk (product of Merck Millipore, Millex-GV, 0.22 μm). The filtrate was diluted to 100 μM with Tris buffer (pH 7.0) and dispensed into a tube (Protein LoBind Tube by Eppendorf Co.). The prepared peptide solutions were incubated for 1 week or 2 weeks in a 60° C. thermostatic bath to obtain stored samples. A simultaneously prepared sample among the peptide solutions that was not stored was used as a standard sample (initial sample). The standard sample and the stored samples were stored at −30° C. until sample analysis.
• Column: XSelect CSH C18 by Waters Co., 5 μm, 4.6×250 mm • Guard column: XSelect CSH C18 by Waters Co., 5 μm, 4.6×20 mm Guard Cartridge • Detection wavelength: 220 nm • Mobile phase A: 0.1% formic acid aqueous solution • Mobile phase B: 0.1% acetonitrile formate solution • Measuring time: 20 minutes • Measuring sample injection rate: 50 μL • Flow rate: 1.0 mL/min • Column temperature: 40° C. • Sample cooler: 25° C. • Mobile phase delivery: The mixing ratio of mobile phase A and mobile phase B was varied as shown in Table 14 for linear concentration gradient control.

Molecule | survival rate after correction for water, 40° C. 1 week ([1]; 1 week (Table 10)) | survival rate after correction for water, 40° C. 4 week ([1]; 4 weeks (Table 10)) | survival rate after correction for water, 60° C. 1 week preservation [2] | survival rate after correction for water, 60° C. 2 weeks preservation [2]
CCCC[C@H](NC(=O)[C@H](CCC(N)=O)NC(=O)[C@H](CCCCN)NC(=O)[C@H](CCCNC(=N)N)NC(=O)[C@H](Cc1ccc(O)cc1)NC(=O)[C@H](CCCNC(=N)N)NC(=O)[C@H](CO)NC(=O)[C@H](Cc1ccc(O)cc1)NC(=O)[C@H](CO)NC(=O)[C@H](Cc1noc(=O)[nH]1)NC(=O)[C@@H](NC(=O)[C@H](Cc1ccccc1)NC(=O)[C@@H](NC(=O)CNC(=O)[C@H](Cc1noc(=O)[nH]1)NC(=O)[C@H](CO)NC(=O)[C@H](Cc1c[nH]cn1)NC(C)=O)[C@@H](C)CC)[C@@H](C)O)C(=O)N[C@@H](C)C(=O)N[C@H](C(=O)N[C@@H](CCCCN)C(=O)N[C@@H](CCCCN)C(=O)N[C@@H](Cc1ccc(O)cc1)C(=O)N[C@@H](CC(C)C)C(=O)N[C@@H](C)C(=O)N[C@@H](C)C(=O)N[C@H](C(=O)N[C@@H](CC(C)C)C(N)=O)C(C)C)C(C)C [Peptide 22, HS(50xa)GI FT(50xa)SY SRYRK QNIAVK KYLAA VL] (Ac-HS[X2]GIFT[X2]SYSRYRKQ[Nle]AVKKYLAAVL-NH2) | 89.7% | 79.7% |  | 
HSTzGIFTTzSYSRYRKQLAVKKYLAAVL [Reference Example 4] |  |  | 91.7% | 84.8%
HSTzGIFTTzSYSRYRKQLAVKKYLAAVL [Reference Example 6] (HSXGIFTXSYSRYRKQLAVKKYLAAVL; N-acetyl; C-terminal amide; Tz residues; modified PACAP peptide; MOD_RES (1)..(1) …ON; MUTAGEN (3)..(3) Xaa is amino acid wherein carboxy group of asparatic acid is substituted with tetrazole; MUTAGEN (8)..(8) Xaa is amino acid wherein carboxy group of asparatic acid is substituted with tetrazole) |  |  | 98.4% | 92.8%
HSTzGIFTTzSYSRYRKQNIAVKKYLAAVL [Reference Example 3] |  |  | 91.3% | 82.4%
HSTzGIFTTzSYSRYRKQNIAVKKYLAAVL [Reference Example 5] (HSXGIFTXSYSRYRKQXAVKKYLAAVL; N-acetyl; C-terminal amide; Tz residues; modified PACAP peptide; MOD_RES (1)..(1) …ON; MUTAGEN (3)..(3) Xaa is amino acid wherein carboxy group of asparatic acid is substituted with tetrazole; MUTAGEN (8)..(8) Xaa is amino acid wherein carboxy group of asparatic acid is substituted with tetrazole; MUTAGEN (17)..(17) Xaa is Nle) |  |  | 98.1% | 92.9%
